Holding throughout (assay): growth of human tumour cells (NCI), 48 h
Assay [1] concerns CCRF-CEM leukemia.
For assay [2], the system named is K-562 leukemia.
Assay [3] concerns MALME-3M melanoma.
For assay [4], the system named is TK-10 renal.
In assay [5] the test system is U251 CNS.
Assay [6] concerns 786-0 renal.
Assay [7] relates to HCT-116 colon.
In assay [8] the test system is HL-60(TB) leukemia.
Assay [9] has as its system HCT-15 colon.

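A five-concentration, 48-hour dose response in 96-well plates underlies each endpoint, interpolated linearly between surrounding concentrations. GI50 marks 50% less growth. TGI denotes the concentration required for complete inhibition of growth.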

`CCC1(C)NN=c2s/c(=C/c3ccc(OC)cc3)c(=O)n2N1` (configuration not stated): the TGI in assay [1], in assay [2], in assay [3], in [4], in assay [5] and in [6] was more than 100 µM throughout. In assay [7], this compound registered a TGI of more than 100 µM.

As for `CCC(C)CN1C(=O)NC(C)(Cc2ccccc2)C1=O` (configuration not stated), the TGI in [8], in [3], in assay [4], in [5] and in assay [6] was more than 100 µM throughout.

As to `O=C(NCCCCCCCCNC(=O)c1cnc2ccccc2n1)c1cnc2ccccc2n1`, the TGI in [1], in assay [2], in assay [9], in assay [8], in assay [3] and in assay [4] was more than 100 µM throughout. The TGI in [5], in assay [6] and in assay [7] was more than 100 µM each time.

For `C=CCC1OC(C)(C)Oc2ccc(OCOCCOC)cc21` (configuration not stated), the TGI in assay [2], in assay [9], in [3], in [4], in assay [5] and in assay [6] was more than 100 µM in each case. In addition, the TGI in assay [7] is more than 100 µM.

Consider `N#Cc1cccc(N2C(=O)c3c(c(-c4ccccc4)c(-c4ccc(Sc5ccc(-c6c(-c7ccccc7)c7c(c(-c8ccccc8)c6-c6ccccc6)C(=O)N(c6cccc(C#N)c6)C7=O)cc5)cc4)c(-c4ccccc4)c3-c3ccccc3)C2=O)c1`, for which the TGI in [1], in assay [2], in [9], in assay [8], in [3] and in assay [4] was more than 100 µM each time. For the same compound, the TGI is 54.2 µM in assay [5], more than 100 µM in assay [6] and more than 100 µM in [7].

As to `N=C(c1ccccc1)N(c1ccccc1)c1ccccc1`, the TGI in [8] was more than 100 µM; in assay [3] it was 94.6 µM; in assay [4], more than 100 µM; in [5] it was more than 100 µM; in [6], more than 100 µM; in [7] it was more than 100 µM.

With `CC1=C(C(=O)NCc2ccccc2)C(c2ccc(C3C(C(=O)NCc4ccccc4)=C(C)NC(C)=C3C(=O)NCc3ccccc3)cc2)C(C(=O)NCc2ccccc2)=C(C)N1`, the TGI in assay [1] was more than 100 µM; in assay [2], more than 100 µM; in assay [9] it was 39 µM; in assay [8], 44.7 µM; in [3], 36.3 µM; in assay [4], 37.8 µM. Also, the TGI in [5] is 14.4 µM; in assay [6] it was 28.9 µM; in assay [7] it was 10.2 µM.

Turning to `CCOc1ccc(NC(=O)CC2SC(=Nc3ccc(Cl)cc3)NC2=O)cc1` (configuration not stated), the TGI is 43.5 µM in assay [1]; 76.4 µM in assay [2]; more than 100 µM in assay [9]; 75.4 µM in assay [8]; more than 100 µM in assay [3]; more than 100 µM in [4]. The TGI in [6] was more than 100 µM.

`O=C(Nc1ccc(Cl)cc1Cl)c1ccc(NC2=C(Cl)C(=O)N(Cc3ccccc3)C2=O)cc1`: the GI50 in [1] is 1990 nM; in assay [2] it was 6.24 µM; in assay [9], 16.8 µM; in assay [8] it was 2500 nM; in assay [4] it was 25.5 µM; in assay [5], 12.2 µM. Further, the GI50 was 21.6 µM in assay [6] and 34.2 µM in [7]. Besides, the TGI is 6.84 µM in assay [1]; 18.4 µM in [2]; more than 100 µM in assay [9]; 9.01 µM in assay [8]; 81.9 µM in [4]; 24.5 µM in assay [5]. Besides, the TGI in [6] and in assay [7] was more than 100 µM throughout.

As for `COc1cc2c(cc1O)C=NCC2`, the TGI in assay [1], in assay [2], in assay [9], in [8], in [3] and in assay [4] was more than 100 µM throughout. In addition, the TGI in assay [5], in [6] and in assay [7] was more than 100 µM each time.

Turning to `C#CCC[C@@H]1O[C@@]1(C)CC/C=C(\C)CC/C=C/C=O`, the TGI in [1] was 64.8 µM; in [2] it was 54 µM; in [9], more than 100 µM; in assay [8] it was 60.8 µM; in [3], 48.3 µM; in [5] it was 39.3 µM. This compound displayed a TGI in assay [6] of more than 100 µM.

Regarding `COc1ccc(/C(=N/NC(N)=O)C2(O)C(=O)Nc3ccc([N+](=O)[O-])cc32)cc1` (configuration not stated), the TGI in assay [1] was 32.3 µM; in assay [2], 58.8 µM; in assay [9], 46.1 µM; in assay [3] it was more than 10 µM; in assay [5], more than 10 µM; in assay [6] it was 30.2 µM. Moreover, in [7], the TGI amounted to 36.1 µM.

For `CC[P+](C)(Cc1ccccc1)c1ccccc1` (configuration not stated), the TGI in assay [1], in [2], in [9], in assay [8], in assay [3] and in [4] was more than 100 µM each time. In addition, the TGI in assay [5], in [6] and in assay [7] was more than 100 µM each time.

For the compound `O=C(O)c1ccccc1Cc1ccco1`, the TGI in assay [2], in assay [9], in [3], in assay [4], in assay [5] and in [6] was more than 100 µM in each case. Moreover, in assay [7], the TGI was more than 100 µM.

Regarding `CN(C)c1ccc2c(c1)C(=O)N(OS(=O)(=O)c1ccc([N+](=O)[O-])cc1)C2=O`, the TGI in assay [1] was 63.1 µM; in assay [2], more than 100 µM; in assay [9], more than 100 µM; in assay [8], 76 µM; in [3], more than 100 µM; in assay [4], more than 100 µM. Also, the results for the TGI in assay [5], in assay [6] and in assay [7] were 35.1 µM, 47.9 µM and more than 10 µM, respectively.

As for `CC1CC2C3CC(F)C4=CC(=O)C=CC4(C)C3(F)C(O)CC2(C)C1(O)C(=O)COC(=O)C(C)(C)C` (configuration not stated), the TGI in assay [1], in assay [2], in assay [9], in assay [8], in assay [3] and in [4] was more than 100 µM each time. In addition, the TGI in [5], in assay [6] and in assay [7] was more than 100 µM in each case.

Values taken from PubChem BioAssay (NCI).
